Reference: ChEMBL document CHEMBL4507318, “Data for DCP probe BAY-985” (2021)

Tests used:
[1] = test system: Epidermal growth factor receptor (Homo sapiens), P00533 [L858R,T790M]
[2] = target: cAMP-dependent protein kinase catalytic subunit alpha (Homo sapiens) (UniProt P17612)
[3] = target: Epidermal growth factor receptor (Homo sapiens) (UniProt P00533)
[4] = target: Testis-specific serine/threonine-protein kinase 3 (Homo sapiens) (UniProt Q96PN8)
[5] = test system: Receptor-type tyrosine-protein kinase FLT3 (Homo sapiens), P36888 [D835V]
[6] = target: 5-hydroxytryptamine receptor 6 (Homo sapiens) (UniProt P50406); conditions: Compound concentration 10.0 uM
[7] = target: GABA-A receptor; anion channel (Rattus norvegicus) (UniProt O09028+P15431+P18506+P18508+P19969+P20236+P23574+P23576+P28471+P28473+P30191+P62813+P63079+P63138+Q91ZM7+Q9ES14); conditions: Compound concentration 10.0 uM
[8] = target: Mitogen-activated protein kinase 7 (Homo sapiens) (UniProt Q13164)
[9] = target: MAP/microtubule affinity-regulating kinase 3 (Homo sapiens) (UniProt P27448)
[10] = test system: Tyrosine-protein kinase ABL1 (Homo sapiens), P00519 [H396P]
[11] = target: Serine/threonine-protein kinase N1 (Homo sapiens) (UniProt Q16512)
[12] = target: Mitogen-activated protein kinase 15 (Homo sapiens) (UniProt Q8TD08)
[13] = target: Serine/threonine-protein kinase NLK (Homo sapiens) (UniProt Q9UBE8)
[14] = target: Ephrin type-A receptor 3 (Homo sapiens) (UniProt P29320)
[15] = target: Homeodomain-interacting protein kinase 3 (Homo sapiens) (UniProt Q9H422)
[16] = target: Phosphatidylinositol 4,5-bisphosphate 3-kinase catalytic subunit delta isoform (Homo sapiens) (UniProt O00329)
[17] = target: LIM domain kinase 1 (Homo sapiens) (UniProt P53667)
[18] = target: Death-associated protein kinase 3 (Homo sapiens) (UniProt O43293)
[19] = target: Mitogen-activated protein kinase kinase kinase kinase 2 (Homo sapiens) (UniProt Q12851)
[20] = target: Mitogen-activated protein kinase 11 (Homo sapiens) (UniProt Q15759)
[21] = target: Serine/threonine-protein kinase ULK2 (Homo sapiens) (UniProt Q8IYT8)
[22] = target: Serine/threonine-protein kinase BRSK2 (Homo sapiens) (UniProt Q8IWQ3)
[23] = test system: Serine/threonine-protein kinase B-raf (Homo sapiens), P15056 [V600E]
[24] = target: Mitogen-activated protein kinase 4 (Homo sapiens) (UniProt P31152)
[25] = target: Tyrosine-protein kinase TXK (Homo sapiens) (UniProt P42681)
[26] = target: Macrophage colony-stimulating factor 1 receptor (Homo sapiens) (UniProt P07333)
[27] = target: Mitogen-activated protein kinase kinase kinase 1 (Homo sapiens) (UniProt Q13233)
[28] = target: Tyrosine-protein kinase Tec (Homo sapiens) (UniProt P42680)
[29] = target: Serine/threonine-protein kinase MARK2 (Homo sapiens) (UniProt Q7KZI7)
[30] = target: Tyrosine-protein kinase JAK1 (Homo sapiens) (UniProt P23458)
[31] = target: Interleukin-1 receptor-associated kinase 4 (Homo sapiens) (UniProt Q9NWZ3)
[32] = test system: Phosphatidylinositol 4,5-bisphosphate 3-kinase catalytic subunit alpha isoform (Homo sapiens), P42336 [H1047Y]
[33] = target: Serine/threonine-protein kinase 24 (Homo sapiens) (UniProt Q9Y6E0)
[34] = target: Serine/threonine-protein kinase TNNI3K (Homo sapiens) (UniProt Q59H18)
[35] = target: SRSF protein kinase 2 (Homo sapiens) (UniProt P78362)
[36] = test system: Receptor-type tyrosine-protein kinase FLT3 (Homo sapiens), P36888 [N841I]
[37] = target: Vascular endothelial growth factor receptor 2 (Homo sapiens) (UniProt P35968)
[38] = target: Mitogen-activated protein kinase kinase kinase 15 (Homo sapiens) (UniProt Q6ZN16)
[39] = target: Ephrin type-A receptor 1 (Homo sapiens) (UniProt P21709)
[40] = test system: Phosphatidylinositol 4,5-bisphosphate 3-kinase catalytic subunit alpha isoform (Homo sapiens), P42336 [H1047L]
[41] = target: Calcium/calmodulin-dependent protein kinase type II subunit alpha (Homo sapiens) (UniProt Q9UQM7)
[42] = target: Receptor-interacting serine/threonine-protein kinase 2 (Homo sapiens) (UniProt O43353)
[43] = target: Cyclin-G-associated kinase (Homo sapiens) (UniProt O14976)
[44] = Compound concentration 1000.0 nM
[45] = Compound concentration 100.0 nM

Phosphatidylinositol 4,5-bisphosphate 3-kinase catalytic subunit alpha isoform (Homo sapiens), P42336 [H1047Y], sequence (P42336 whole entry H1047Y, canonical isoform): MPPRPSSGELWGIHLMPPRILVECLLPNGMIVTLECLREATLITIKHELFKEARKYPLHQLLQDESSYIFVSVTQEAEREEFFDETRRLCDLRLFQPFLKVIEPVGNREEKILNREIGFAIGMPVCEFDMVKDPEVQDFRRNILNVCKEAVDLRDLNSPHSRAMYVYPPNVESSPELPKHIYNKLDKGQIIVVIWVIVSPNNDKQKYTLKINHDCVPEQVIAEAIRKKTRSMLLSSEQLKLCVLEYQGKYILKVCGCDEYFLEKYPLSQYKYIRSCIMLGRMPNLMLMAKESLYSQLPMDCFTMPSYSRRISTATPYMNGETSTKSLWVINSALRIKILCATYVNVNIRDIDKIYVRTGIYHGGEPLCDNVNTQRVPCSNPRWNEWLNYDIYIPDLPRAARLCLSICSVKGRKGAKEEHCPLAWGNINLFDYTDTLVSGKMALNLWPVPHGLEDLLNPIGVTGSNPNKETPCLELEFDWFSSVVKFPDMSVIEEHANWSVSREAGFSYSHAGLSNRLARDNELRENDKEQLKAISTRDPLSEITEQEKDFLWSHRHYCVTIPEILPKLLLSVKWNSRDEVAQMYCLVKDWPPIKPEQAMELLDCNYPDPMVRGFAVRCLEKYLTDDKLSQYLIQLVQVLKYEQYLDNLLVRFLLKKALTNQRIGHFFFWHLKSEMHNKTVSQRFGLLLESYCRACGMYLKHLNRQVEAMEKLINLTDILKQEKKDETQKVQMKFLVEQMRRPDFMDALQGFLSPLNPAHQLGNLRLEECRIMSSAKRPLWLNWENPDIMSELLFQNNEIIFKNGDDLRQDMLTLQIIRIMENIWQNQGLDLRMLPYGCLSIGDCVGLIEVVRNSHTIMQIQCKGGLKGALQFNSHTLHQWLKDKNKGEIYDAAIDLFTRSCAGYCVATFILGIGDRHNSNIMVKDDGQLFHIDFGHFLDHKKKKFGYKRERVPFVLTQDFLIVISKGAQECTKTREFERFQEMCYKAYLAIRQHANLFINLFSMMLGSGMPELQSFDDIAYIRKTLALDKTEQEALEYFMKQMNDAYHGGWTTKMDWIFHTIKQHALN
Serine/threonine-protein kinase BRSK2 (Homo sapiens), sequence (Q8IWQ3 whole entry): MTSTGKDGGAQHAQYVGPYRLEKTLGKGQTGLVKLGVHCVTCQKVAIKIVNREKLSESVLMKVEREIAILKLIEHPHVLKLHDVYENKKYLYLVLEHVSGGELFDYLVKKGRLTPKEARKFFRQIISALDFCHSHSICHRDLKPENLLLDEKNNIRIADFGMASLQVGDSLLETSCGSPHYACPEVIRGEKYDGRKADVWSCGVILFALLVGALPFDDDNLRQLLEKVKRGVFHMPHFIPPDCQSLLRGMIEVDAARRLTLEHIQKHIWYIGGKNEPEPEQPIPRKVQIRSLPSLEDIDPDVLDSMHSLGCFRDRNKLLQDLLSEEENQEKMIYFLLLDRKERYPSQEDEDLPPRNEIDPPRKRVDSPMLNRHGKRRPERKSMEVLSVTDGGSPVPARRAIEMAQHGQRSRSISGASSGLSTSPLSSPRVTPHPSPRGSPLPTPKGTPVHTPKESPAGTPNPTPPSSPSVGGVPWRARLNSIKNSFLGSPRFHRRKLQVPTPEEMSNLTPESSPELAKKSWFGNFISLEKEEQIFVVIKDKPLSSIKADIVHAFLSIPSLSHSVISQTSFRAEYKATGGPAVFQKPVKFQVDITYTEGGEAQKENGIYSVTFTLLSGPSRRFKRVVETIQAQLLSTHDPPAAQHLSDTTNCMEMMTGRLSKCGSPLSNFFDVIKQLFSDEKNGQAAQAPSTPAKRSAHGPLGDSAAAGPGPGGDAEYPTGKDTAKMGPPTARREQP
Mitogen-activated protein kinase 4 (Homo sapiens), sequence (P31152 whole entry): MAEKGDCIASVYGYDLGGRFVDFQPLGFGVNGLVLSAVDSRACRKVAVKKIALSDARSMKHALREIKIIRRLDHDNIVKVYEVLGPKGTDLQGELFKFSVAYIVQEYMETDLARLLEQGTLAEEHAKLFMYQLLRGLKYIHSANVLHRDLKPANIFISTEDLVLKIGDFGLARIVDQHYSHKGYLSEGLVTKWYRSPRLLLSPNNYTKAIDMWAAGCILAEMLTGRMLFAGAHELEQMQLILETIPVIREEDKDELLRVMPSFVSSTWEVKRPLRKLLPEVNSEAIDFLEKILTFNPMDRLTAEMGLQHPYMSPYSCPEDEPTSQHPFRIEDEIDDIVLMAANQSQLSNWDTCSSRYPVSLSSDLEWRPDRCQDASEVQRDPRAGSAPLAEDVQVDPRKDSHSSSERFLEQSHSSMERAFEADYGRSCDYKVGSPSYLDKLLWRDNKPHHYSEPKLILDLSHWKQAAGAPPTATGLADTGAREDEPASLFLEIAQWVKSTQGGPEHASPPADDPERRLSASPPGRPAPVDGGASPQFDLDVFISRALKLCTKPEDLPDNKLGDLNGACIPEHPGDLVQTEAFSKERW
Serine/threonine-protein kinase N1 (Homo sapiens), sequence (Q16512 2-942 limits assumed): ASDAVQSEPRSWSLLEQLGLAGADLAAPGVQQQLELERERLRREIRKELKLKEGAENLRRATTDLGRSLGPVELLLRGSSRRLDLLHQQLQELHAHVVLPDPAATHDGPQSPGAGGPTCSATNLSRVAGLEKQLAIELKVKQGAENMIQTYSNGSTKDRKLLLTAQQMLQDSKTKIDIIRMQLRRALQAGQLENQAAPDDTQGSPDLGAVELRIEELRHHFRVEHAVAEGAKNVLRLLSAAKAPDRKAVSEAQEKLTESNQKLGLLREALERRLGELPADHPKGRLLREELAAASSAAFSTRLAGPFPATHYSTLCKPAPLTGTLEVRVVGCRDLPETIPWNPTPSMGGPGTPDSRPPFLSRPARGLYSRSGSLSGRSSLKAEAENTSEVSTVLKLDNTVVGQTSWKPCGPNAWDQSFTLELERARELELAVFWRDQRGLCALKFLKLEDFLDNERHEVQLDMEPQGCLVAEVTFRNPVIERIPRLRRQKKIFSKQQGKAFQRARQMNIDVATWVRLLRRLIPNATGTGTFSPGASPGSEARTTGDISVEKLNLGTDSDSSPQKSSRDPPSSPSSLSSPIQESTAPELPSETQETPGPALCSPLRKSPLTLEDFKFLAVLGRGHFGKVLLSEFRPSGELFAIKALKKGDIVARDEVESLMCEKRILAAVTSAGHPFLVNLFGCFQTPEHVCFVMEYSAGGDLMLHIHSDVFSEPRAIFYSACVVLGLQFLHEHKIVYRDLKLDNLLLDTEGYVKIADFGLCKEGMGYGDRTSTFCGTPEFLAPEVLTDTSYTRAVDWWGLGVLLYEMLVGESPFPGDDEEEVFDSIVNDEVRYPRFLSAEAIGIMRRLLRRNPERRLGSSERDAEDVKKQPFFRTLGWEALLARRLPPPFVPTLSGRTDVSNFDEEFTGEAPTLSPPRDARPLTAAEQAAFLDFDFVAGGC
Mitogen-activated protein kinase 11 (Homo sapiens), sequence (Q15759 whole entry): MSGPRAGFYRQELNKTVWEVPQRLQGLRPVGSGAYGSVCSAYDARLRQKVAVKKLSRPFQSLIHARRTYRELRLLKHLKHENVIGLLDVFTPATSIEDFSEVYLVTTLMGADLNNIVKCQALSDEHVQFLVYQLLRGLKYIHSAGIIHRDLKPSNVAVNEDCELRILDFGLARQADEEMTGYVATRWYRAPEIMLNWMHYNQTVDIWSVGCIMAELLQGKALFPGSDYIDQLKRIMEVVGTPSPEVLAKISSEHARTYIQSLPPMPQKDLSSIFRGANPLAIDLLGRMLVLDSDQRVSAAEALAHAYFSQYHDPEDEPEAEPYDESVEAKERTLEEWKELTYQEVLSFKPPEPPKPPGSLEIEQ
Mitogen-activated protein kinase 15 (Homo sapiens), sequence (Q8TD08 whole entry): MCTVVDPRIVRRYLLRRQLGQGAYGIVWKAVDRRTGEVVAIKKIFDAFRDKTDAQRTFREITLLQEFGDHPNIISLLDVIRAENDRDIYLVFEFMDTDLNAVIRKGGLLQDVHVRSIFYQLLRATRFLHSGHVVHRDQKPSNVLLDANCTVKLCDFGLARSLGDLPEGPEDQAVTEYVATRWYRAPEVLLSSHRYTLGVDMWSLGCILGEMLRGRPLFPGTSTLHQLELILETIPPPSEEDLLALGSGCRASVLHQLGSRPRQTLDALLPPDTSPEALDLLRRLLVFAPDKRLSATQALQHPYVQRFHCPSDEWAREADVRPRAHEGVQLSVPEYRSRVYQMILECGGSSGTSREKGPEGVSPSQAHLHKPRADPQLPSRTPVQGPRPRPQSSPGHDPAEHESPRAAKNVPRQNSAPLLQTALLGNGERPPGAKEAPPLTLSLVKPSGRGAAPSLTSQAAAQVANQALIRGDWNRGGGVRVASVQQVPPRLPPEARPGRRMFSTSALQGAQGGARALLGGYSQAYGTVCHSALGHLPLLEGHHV
Tyrosine-protein kinase TXK (Homo sapiens), sequence (P42681 whole entry): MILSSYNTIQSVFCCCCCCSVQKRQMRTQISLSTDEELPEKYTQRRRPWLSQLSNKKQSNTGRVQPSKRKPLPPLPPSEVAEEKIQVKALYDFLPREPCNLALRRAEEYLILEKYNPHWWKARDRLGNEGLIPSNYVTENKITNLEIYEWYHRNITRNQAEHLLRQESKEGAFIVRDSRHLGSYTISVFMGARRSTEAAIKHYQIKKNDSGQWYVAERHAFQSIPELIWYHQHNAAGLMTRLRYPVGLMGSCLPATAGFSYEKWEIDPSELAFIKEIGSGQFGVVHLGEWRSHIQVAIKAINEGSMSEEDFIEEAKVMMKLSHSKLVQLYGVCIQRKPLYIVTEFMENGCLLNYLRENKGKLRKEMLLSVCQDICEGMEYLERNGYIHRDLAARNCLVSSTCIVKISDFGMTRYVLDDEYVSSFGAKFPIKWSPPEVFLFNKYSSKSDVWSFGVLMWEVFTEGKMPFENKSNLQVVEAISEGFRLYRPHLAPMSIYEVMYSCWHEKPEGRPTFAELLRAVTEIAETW
Phosphatidylinositol 4,5-bisphosphate 3-kinase catalytic subunit alpha isoform (Homo sapiens), P42336 [H1047L], sequence (P42336 whole entry H1047L, canonical isoform): as the sequence (P42336 whole entry H1047Y, canonical isoform) above, with Y1047L counted along it

CN(C)c1ncnc(-c2ccc3nc(Nc4cc(CN5CCN(C(=O)CC(F)(F)F)CC5)ccn4)[nH]c3c2)c1Cl [BAY-440]
active: residual activity [5, 44] 7% | residual activity [10, 44] 4.2% | residual activity [31, 44] 39% | residual activity [42, 44] 37%
inactive: residual activity [1, 44] 82% | residual activity [2, 44] 100% | residual activity [3, 44] 100% | residual activity [4, 44] 62% | inhibition [6] 12.4% | inhibition [7] 14% | residual activity [8, 44] 91% | residual activity [9, 44] 100% | residual activity [11, 44] 100% | residual activity [12, 44] 73% | residual activity [13, 44] 88% | residual activity [14, 44] 63% | residual activity [15, 44] 100% | residual activity [16, 44] 67% | residual activity [17, 44] 100% | residual activity [18, 44] 99% | residual activity [19, 44] 69% | residual activity [20, 44] 97% | residual activity [21, 44] 64% | residual activity [22, 44] 100% | residual activity [23, 44] 84% | residual activity [24, 44] 100% | residual activity [25, 44] 95% | residual activity [26, 44] 50% | residual activity [27, 44] 100% | residual activity [28, 44] 100% | residual activity [29, 44] 68% | residual activity [30, 44] 93% | residual activity [32, 44] 74% | residual activity [33, 44] 90% | residual activity [34, 44] 50% | residual activity [35, 44] 76% | residual activity [36, 44] 53% | residual activity [37, 44] 74% | residual activity [38, 44] 75% | residual activity [39, 44] 100% | residual activity [40, 44] 61% | residual activity [41, 44] 100% | residual activity [43, 44] 82%

C[C@H](c1ccnc(Nc2nc3ccc(-c4cc(N(C)C)ncn4)cc3[nH]2)c1)N1CCN(C(=O)CC(F)(F)F)CC1 [BAY-985]
active: residual activity [5, 45] 32% | residual activity [36, 45] 43%
inactive: residual activity [1, 45] 100% | residual activity [2, 45] 100% | residual activity [3, 45] 97% | residual activity [4, 45] 74% | inhibition [6] -4.38% | inhibition [7] 5.57% | residual activity [8, 45] 100% | residual activity [9, 45] 100% | residual activity [10, 45] 79% | residual activity [11, 45] 100% | residual activity [12, 45] 100% | residual activity [13, 45] 88% | residual activity [14, 45] 100% | residual activity [15, 45] 100% | residual activity [16, 45] 100% | residual activity [17, 45] 100% | residual activity [18, 45] 90% | residual activity [19, 45] 100% | residual activity [20, 45] 89% | residual activity [21, 45] 100% | residual activity [22, 45] 100% | residual activity [23, 45] 100% | residual activity [24, 45] 100% | residual activity [25, 45] 96% | residual activity [26, 45] 90% | residual activity [27, 45] 100% | residual activity [28, 45] 100% | residual activity [29, 45] 100% | residual activity [30, 45] 92% | residual activity [31, 45] 100% | residual activity [32, 45] 100% | residual activity [33, 45] 64% | residual activity [34, 45] 59% | residual activity [35, 45] 100% | residual activity [37, 45] 100% | residual activity [38, 45] 96% | residual activity [39, 45] 99% | residual activity [40, 45] 100% | residual activity [41, 45] 99% | residual activity [42, 45] 71% | residual activity [43, 45] 95%
